From patent US12435087B2, “Modulators of DCN-1 and methods of use thereof” (Cellarity, Inc., priority 2023, dated 2025)
Where two headings read alike, the source gives them in different places.

Molecular target: DCN1 (DCUND1) protein PONY domain (Homo sapiens (Human), UniProt Q96GG9)
Test: TR-FRET assay (binding to DCN-1, displacement of FAM-labeled probe)
From the text: (§1) The TR-FRET assay was designed following the Scott et al. protocol (Scott et al., Nat Chem Biol. 2017 August; 13(8): 850-857. doi:10.1038/nchembio.2386). The recombinant form of the DCN1 (DCUND1) protein PONY domain was produced using an E. coli expression system at Viva Biotech (China). The DCN1 protein was biotinylated (EZ sulfo-NHS-LC-biotin; Thermofisher) for labeling with streptavidin terbium (Tb) cryptate in the reaction. The probe was changed to a non-covalent DCN1 inhibitor labeled with carboxyfluorescein (FAM; Zhou et al., Nat Commun. 2017; 8: 1150. doi: 10.1038/s41467-017-01243-7). Buffer conditions were modified to enhance protein stability by exchanging Tween20 for TritonX and increasing NaCl to 200 mM. The compounds were screened against 5 nM DCN1 and 20 nM FAM-probe or 0.31 nM DCN1 and 900 nM total probe (100 nM FAM-labeled plus 800 nM unlabeled). The TR-FRET ratio between Tb-DCN1 and the FAM-labeled probe was measured in a 384-well opti-plate (Perkin Elmer) using a plate reader (BMG) at 1, 5, and 24 hrs after treatment with compound (final DMSO concentration of 0.1%). The ratio was normalized to the high (DCN1 and FAM-probe) and low (DCN1 and no probe) controls for a readout of % activity (=100*(x−low)/(high−low).
A TR-FRET assay was performed to evaluate the ability of the compounds to bind the DCN-1 protein.
as §1, with “850-857. Doi: 10.1038/nchembio.2386).” for “850-857. doi:10.1038/nchembio.2386).”, “the DCNI” for “the DCN1”, “1150. Doi:” for “1150. doi:”, “0.1%).” for “0.1%). The ratio was normalized to the high (DCN1 and FAM-probe) and low (DCN1 and no probe) controls for a readout of % activity (=100*(x−low)/(high−low).”

[1] = 24 hr after treatment with compound, read-out: TR FRET IC50 24 hr
[2] = TR FRET IC50 1 hr (nM), 1 hr after treatment with compound
[3] = read-out: TR FRET IC50 1 hr, 1 hr after treatment with compound

Sequence of DCN1 (DCUND1) protein PONY domain (Q96GG9 60-248): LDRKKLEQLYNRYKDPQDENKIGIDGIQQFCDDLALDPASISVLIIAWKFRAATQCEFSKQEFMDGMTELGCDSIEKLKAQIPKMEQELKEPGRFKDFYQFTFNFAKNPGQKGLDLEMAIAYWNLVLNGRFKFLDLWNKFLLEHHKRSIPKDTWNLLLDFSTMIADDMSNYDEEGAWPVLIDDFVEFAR

Row | Structure (SMILES) | IC50 [1] [nM] | IC50 [2] [nM] | IC50 [3] [nM]
1 | CCN1C(=O)[C@@H](NC(=O)c2cccc(C(F)(F)F)c2)[C@H](c2ccccc2CNC(=O)/C=C/C(=O)OC)c2cnn(-c3ccccc3)c21 (racemic) [Compound I-67] | 1000 to 3000 | 1000 to 3000 | 
2 | C/C=C(\CN1CCC1)C(=O)NCc1cccc([C@@H]2c3cnn(-c4ccccc4)c3N(CC)C(=O)[C@H]2NC(=O)c2nccc(C(F)(F)F)n2)c1 [Compound I-314] | ≤ 200 | 200 to 1000 | 
3 | CCN1C(=O)[C@@H](NC(=O)c2cccc(C(F)(F)F)c2)[C@H](c2cccc(CNC(=O)/C=C/C(=O)OC)c2)c2cnn(-c3ccccc3)c21 (racemic) [Compound I-143] | 200 to 1000 | 1000 to 3000 | 
4 | CCN1C(=O)[C@H](NC(=O)c2cccc(C(F)(F)F)c2)[C@@H](c2cccc(NC(=O)C#CCN(C)C)c2)c2cnn(-c3ccccc3)c21 (racemic) [Compound I-132, rac-N-((4R,5S)-4-(3-(4-(dimethylamino)but-2-ynamido)phenyl)-7-ethyl-6-oxo-1-phenyl-4,5,6,7-tetrahydro-1H-pyrazolo[3,4-b]pyridin-5-yl)-3-(trifluoromethyl)benzamide] | 200 to 1000 | 200 to 1000 | 
5 | CCN1C(=O)[C@H](NC(=O)c2cccc(C(F)(F)F)c2)[C@@H](c2cccc(N(C)C(=O)/C=C/C(F)(F)F)c2)c2cnn(-c3ccccc3)c21 (racemic) [Compound I-99] | 1000 to 3000 | 1000 to 3000 | 
6 | C=C(CN1CCOCC1)C(=O)NCc1cccc([C@@H]2c3cnn(-c4ccccc4)c3N(CC)C(=O)[C@H]2NC(=O)c2ccn(CC)n2)c1 [Compound I-351] | ≤ 200 | 200 to 1000 | 
7 | CCN1C(=O)[C@@H](NC(=O)c2nccc(C(F)(F)F)n2)[C@H](c2cccc(NC(=O)/C=C/C(=O)OC(C)(C)C)c2)c2c(C)nn(-c3ccccc3)c21 (racemic) [Compound I-359, rac-tert-butyl (E)-4-((3-((4R,5S)-7-ethyl-3-methyl-6-oxo-1-phenyl-5-(4-(trifluoromethyl)pyrimidine-2-carboxamido)-4,5,6,7-tetrahydro-1H-pyrazolo[3,4-b]pyridin-4-yl)phenyl)amino)-4-oxobut-2-enoate] | ≤ 200 | 1000 to 3000 | 
8 | C=C(COC)C(=O)Nc1cccc([C@H]2c3c(C)nn(-c4ccccc4)c3N(CC)C(=O)[C@@H]2NC(=O)c2cccc(C(F)(F)F)c2)c1 [Compound I-158] | ≤ 200 | 1000 to 3000 | 
9 | C=C(Cn1cc(F)cn1)C(=O)NCc1cccc([C@@H]2c3cnn(-c4ccccc4)c3N(CC)C(=O)[C@H]2NC(=O)c2nccc(C(F)(F)F)n2)c1 [Compound I-331] | 200 to 1000 | 1000 to 3000 | 
10 | C=C(C(=O)NCc1cccc([C@@H]2c3cnn(-c4ccccc4)c3N(CC)C(=O)[C@H]2NC(=O)c2ccn(CCF)n2)c1)C(C)N(C)C1COC1 (stereo partly drawn) [Compound I-334] | ≤ 200 | 200 to 1000 | 
11 | CCN1C(=O)[C@@H](NC(=O)c2nccc(C(F)(F)F)n2)[C@H](c2cccc(NC(=O)/C=C/C(=O)N3CCCC3)c2)c2c(C)nn(-c3ccccc3)c21 (racemic) [Compound I-262] | 1000 to 3000 | 1000 to 3000 | 
12 | CCN1C(=O)[C@H](NC(=O)c2cccc(C(F)(F)F)c2)[C@@H](c2cccc(CNC(=O)C3=C(C(=O)OC)CC3)c2)c2cnn(-c3ccccc3)c21 [Compound I-118] | 1000 to 3000 | 1000 to 3000 | 
13 | C=C(CN1CC2CCC(C1)O2)C(=O)NCc1cccc([C@@H]2c3cnn(-c4ccccc4)c3N(CC)C(=O)[C@H]2NC(=O)c2ccn(C(F)(F)F)n2)c1 [Compound I-347] | ≤ 200 |  | ≤ 200
14 | C=C(CN1C[C@@H]2C[C@H]1CO2)C(=O)NCc1cccc([C@@H]2c3cnn(-c4ccccc4)c3N(CC)C(=O)[C@@H]2NC(=O)c2cccc(C(F)(F)F)c2)c1 [Compound I-144] | 200 to 1000 | 1000 to 3000 | 
15 | CCN1C(=O)[C@H](NC(=O)c2cccc(C(F)(F)F)c2)[C@@H](c2ccccc2NC#N)c2cnn(-c3ccccc3)c21 (racemic) [Compound I-122, ˜{N}—[˜{rac}-(4˜{S},5˜{R})-4-[2-(cyanoamino)phenyl]-7-ethyl-6-oxo-1-phenyl-4,5-dihydropyrazolo[3,4-b]pyridin-5-yl]-3-(trifluoromethyl)benzamide] | 1000 to 3000 | 1000 to 3000 | 
16 | C=C(C(=O)NCc1cccc([C@@H]2c3cnn(-c4ccccc4)c3N(CC)C(=O)[C@H]2NC(=O)c2ccn(C3CC3)n2)c1)C(C)N1CCC12COC2 (stereo partly drawn) [Compound I-325] |  | 200 to 1000 | 

Row | Structure (SMILES) | IC50 [1] [nM] | IC50 [2] [nM] | IC50 [3] [nM]
17 | C=C(CN1CC(C)(O)C1)C(=O)NCc1cccc([C@@H]2c3cnn(-c4ccccc4)c3N(CC)C(=O)[C@H]2NC(=O)c2cccc(C(F)(F)F)c2)c1 [Compound I-361] | ≤ 200 |  | ≤ 200
18 | C/C=C(\CN1CCOCC1)C(=O)N(C)Cc1cccc([C@@H]2c3cnn(-c4ccccc4)c3N(CC)C(=O)[C@H]2NC(=O)c2nccc(C(F)(F)F)n2)c1 [Compound I-326] | 1000 to 3000 | 1000 to 3000 | 
19 | CCN1C(=O)[C@@H](NC(=O)c2cccc(C(F)(F)F)c2)[C@H](c2ccccc2CNC(=O)/C=C/CN(C)C)c2cnn(-c3ccccc3)c21 (racemic) [Compound I-120] | 1000 to 3000 | 1000 to 3000 | 
20 | CCN1C(=O)[C@@H](NC(=O)c2cccc(C(F)(F)F)c2)[C@@H](c2cc(NC(=O)/C=C/CN(C)C)ccc2F)c2cnn(-c3ccccc3)c21 (racemic) [Compound I-107] | 1000 to 3000 | 1000 to 3000 | 
21 | C=C(CN1CCN(C2COC2)CC1)C(=O)NCc1cccc([C@@H]2c3c(C)nn(-c4ccccc4)c3N(CC)C(=O)[C@H]2NC(=O)c2cccc(C(F)(F)F)c2)c1 [Compound I-353] | ≤ 200 |  | ≤ 200
22 | C=C(CN1CCOCC1)C(=O)NCc1cccc([C@@H]2c3cnn(-c4ccccc4)c3N(CC)C(=O)[C@H]2NC(=O)c2ccn(CCF)n2)c1 [Compound I-357] | ≤ 200 | 200 to 1000 | 
23 | CCN1C(=O)[C@@H](NC(=O)c2cccc(C(F)(F)F)c2)[C@H](c2cccc(CNC(=O)C(C)Cl)c2)c2cnn(-c3ccccc3)c21 (mixture of isomers) [Compound I-112] | 1000 to 3000 | 1000 to 3000 | 
24 | CCN1C(=O)[C@@H](NC(=O)c2nccc(C(F)(F)F)n2)[C@H](c2cccc(NC(=O)C3=CCN(C)C3)c2)c2c(C)nn(-c3ccccc3)c21 [Compound I-37] | ≤ 200 |  | ≤ 200
25 | C=C(CN1CC2CCC1CO2)C(=O)NCc1cccc([C@@H]2c3cnn(-c4ccccc4)c3N(CC)C(=O)[C@H]2NC(=O)c2cccc(C(F)(F)F)c2)c1 (stereo partly drawn) [Compound I-293] | ≤ 200 |  | ≤ 200
26 | C=C(CN1CCOCC1)C(=O)NCc1cccc([C@@H]2c3cnn(-c4ccccc4)c3N(CC)C(=O)[C@H]2NC(=O)c2ccn(C(F)F)n2)c1 [Compound I-308] | ≤ 200 | 200 to 1000 | 
27 | CCN1C(=O)[C@H](NC(=O)c2cccc(C(F)(F)F)c2)[C@@H](c2cccc(NC(=O)C#CCN3CCOCC3)c2)c2c(C)nn(-c3ccccc3)c21 (racemic) [Compound I-35] | 1000 to 3000 | 1000 to 3000 | 
28 | C=C(C(=O)NCc1cccc([C@@H]2c3cnn(-c4ccccc4)c3N(CC)C(=O)[C@H]2NC(=O)c2nccc(C(F)(F)F)n2)c1)C(C)N1CCN(C2COC2)CC1 (stereo partly drawn) [Compound I-310] | ≤ 200 |  | ≤ 200
29 | C=C(CN1CC2CCC(C1)O2)C(=O)NCc1cccc([C@@H]2c3cnn(-c4ccccc4)c3N(CC)C(=O)[C@H]2NC(=O)c2cccc(C(F)(F)F)c2)c1 [Compound I-136] | ≤ 200 |  | ≤ 200
30 | CCN1C(=O)[C@@H](NC(=O)c2cccc(C(F)(F)F)c2)[C@H](c2cccc(CNC(=O)C(F)Cl)c2)c2cnn(-c3ccccc3)c21 (mixture of isomers) [Compound I-100] | 1000 to 3000 | 1000 to 3000 | 
31 | CCN1C(=O)[C@H](NC(=O)c2cccc(C(F)(F)F)c2)[C@@H](c2cccc(NC(C)=O)c2)c2c(C)nn(-c3ccccc3)c21 (racemic) [Compound I-124] | 1000 to 3000 | 1000 to 3000 | 
32 | C=C(CO)C(=O)Nc1cccc([C@@H]2c3c(C)nn(-c4ccccc4)c3N(CC)C(=O)[C@H]2NC(=O)c2cccc(C(F)(F)F)c2)c1 (racemic) [Compound I-71] | 200 to 1000 | 1000 to 3000 | 
